# Results from PMC6154694, “Absorption, Metabolic Stability, and Pharmacokinetics of Ginger Phytochemicals” (Molecules : A Journal of Synthetic Chemistry and Natural …, 2017).
# Experiments:
# [1] = Liver microsomal stability, human; assay type: in vitro ADME; settings: protein 0.5 mg/mL; for remaining at 0.5 h, 10 µM: both sexes, pooled liver microsomes, pH 7.4, substrate 10 µM, n = 2, read-out: % Remaining at 30 min; for Intrinsic Clearance: human liver microsomes, substrate 10 µM, 45 mg protein/g liver
# Procedure: (§1) Pooled liver microsomes from CD1 mouse, IGS Sprague-Dawley rat, Beagle dog, and mixed gender human were used for assays. Incubations (1 mL) consisted of liver microsomes (0.5 mg/mL), NADPH (1 mM) and 100 mM sodium phosphate buffer (pH 7.4). Following pre-incubation (10 min, 37 °C), reactions were initiated by spiking ACN/DMSO (80:20) stock solutions of GE phenolics (5 μL, 10 μM). Samples (100 μL) were withdrawn at 0, 5, 10, 15, 20 and 30 min and quenched with 200 μL acetonitrile containing internal standard. Concomitant NADPH-free control incubations were prepared similarly.
# [2] = Solubility and stability in simulated intestinal fluid (SIF); assay type: in vitro ADME; settings: pH 6.8, 37 °C, n = 2
# Procedure: (§2) SGF and SIF were prepared as per USP method. Briefly, SGF was prepared by adding 2 g of sodium chloride and 3.2 g of pepsin with water and pH was adjusted to 1.2 ± 0.1 using hydrochloric acid (7 mL) and volume made up to 1 L. SIF was prepared by dissolving 6.8 g monobasic potassium phosphate and 10 g pancreatin in Milli-Q water (Millipore, Billerica, MA, USA). pH was adjusted to 6.8 ± 0.1 with sodium hydroxide solution and volume was made upto 1 L. Reactions were initiated by spiking DMSO stock solutions of GE phenolics 10 μL into 1990 μL of SGF and SIF incubated at 37 °C for 10 min. Samples (200 μL) were withdrawn at 0, 15, 30, and 60 min for SGF and at 0, 30, 60, and 120 min for SIF and quenched with 200 μL acetonitrile containing internal standard.
# [3] = Liver microsomal stability, rat; assay type: in vitro ADME, IGS Sprague-Dawley rat; settings: protein 0.5 mg/mL; for remaining at 0.5 h, 10 µM: IGS Sprague-Dawley, pooled liver microsomes, pH 7.4, substrate 10 µM, n = 2, read-out: % Remaining at 30 min; for Intrinsic Clearance: rat liver microsomes, substrate 10 µM, 45 mg protein/g liver
# Procedure: as §1
# [4] = Solubility and stability in simulated gastric fluid (SGF); assay type: in vitro ADME; settings: pH 1.2, 37 °C, n = 2
# Procedure: as §2
# [5] = Liver microsomal stability, dog; assay type: in vitro ADME, Beagle dog; settings: protein 0.5 mg/mL; for remaining at 0.5 h, 10 µM: Beagle, pooled liver microsomes, pH 7.4, substrate 10 µM, n = 2, read-out: % Remaining at 30 min; for Intrinsic Clearance: dog liver microsomes, substrate 10 µM, 45 mg protein/g liver
# Procedure: as §1
# [6] = pH dependent kinetic solubility in hydrochloride, citrate and phosphate buffers; assay type: physicochemical; settings: 23 °C, kinetic from dmso stock, tested 10 to 100 µM, n = 2
# Procedure: Calibration standards were prepared by spiking 5 μL of DMSO stock solutions into 995 μL acetonitrile/buffer (1:1) mixture. Following centrifugation (10,000 rpm, 10 min, 25 °C) the reaction samples were diluted 1:1 with acetonitrile.
# [7] = 100 mM citrate buffer, aqueous buffer, pH 4, citrate buffer
# [8] = 100 mM phosphate buffer, aqueous buffer, pH 7.4, phosphate buffer
# [9] = simulated gastric fluid, pH 2, hydrochloride buffer
smiles,measurement,setting,value
"CCCCCCCC(O)CC(=O)CCc1ccc(O)c(OC)c1 (centres unmarked) [8G, 8-gingerol]","remaining at 0.5 h, 10 µM",[1],1%
same,Intrinsic Clearance,[1],8.5 mL/min/g Liver
same,half-life at 10 µM,[2],> 2 h
same,"remaining at 0.5 h, 10 µM",[3],9%
same,Intrinsic Clearance,[3],7.0 mL/min/g Liver
same,half-life at 10 µM,[4],> 1 h
same,"remaining at 0.5 h, 10 µM",[5],6%
same,Intrinsic Clearance,[5],14.0 mL/min/g Liver
same,solubility at 2 h,[6]; [7],> 100 µM
same,solubility at 2 h,[6]; [8],> 100 µM
same,solubility at 2 h,[6]; [9],> 100 µM
"CCCCC[C@H](O)CC(=O)CCc1ccc(O)c(OC)c1 [6G, 6-gingerol]","remaining at 0.5 h, 10 µM",[1],56%
same,Intrinsic Clearance,[1],6.6 mL/min/g Liver
same,half-life at 10 µM,[2],> 2 h
same,"remaining at 0.5 h, 10 µM",[3],50%
same,Intrinsic Clearance,[3],11.2 mL/min/g Liver
same,half-life at 10 µM,[4],> 1 h
same,"remaining at 0.5 h, 10 µM",[5],67%
same,Intrinsic Clearance,[5],14.1 mL/min/g Liver
same,solubility at 2 h,[6]; [7],> 100 µM
same,solubility at 2 h,[6]; [8],> 100 µM
same,solubility at 2 h,[6]; [9],> 100 µM
"CCCCC/C=C/C(=O)CCc1ccc(O)c(OC)c1 [6S, 6-shogaol]","remaining at 0.5 h, 10 µM",[1],1%
same,Intrinsic Clearance,[1],8.4 mL/min/g Liver
same,half-life at 10 µM,[2],> 2 h
same,"remaining at 0.5 h, 10 µM",[3],1%
same,Intrinsic Clearance,[3],13.0 mL/min/g Liver
same,half-life at 10 µM,[4],> 1 h
same,"remaining at 0.5 h, 10 µM",[5],9%
same,Intrinsic Clearance,[5],29.9 mL/min/g Liver
same,solubility at 2 h,[6]; [7],< 10 µM
same,solubility at 2 h,[6]; [8],< 10 µM
same,solubility at 2 h,[6]; [9],< 10 µM
"CCCCCCCCCC(O)CC(=O)CCc1ccc(O)c(OC)c1 (centres unmarked) [10G, 10-gingerol]","remaining at 0.5 h, 10 µM",[1],22%
same,Intrinsic Clearance,[1],6.7 mL/min/g Liver
same,half-life at 10 µM,[2],> 2 h
same,"remaining at 0.5 h, 10 µM",[3],13%
same,Intrinsic Clearance,[3],5.4 mL/min/g Liver
same,half-life at 10 µM,[4],> 1 h
same,"remaining at 0.5 h, 10 µM",[5],45%
same,Intrinsic Clearance,[5],5.6 mL/min/g Liver
same,solubility at 2 h,[6]; [7],< 10 µM
same,solubility at 2 h,[6]; [8],< 10 µM
same,solubility at 2 h,[6]; [9],< 10 µM
